Data from US4910216A, “2-(3,5-dimethyl-4-hydroxyphenyl)indole derivatives” (Teikoku Hormone Mfg. Co., Ltd., priority 1988, dated 1990).

How the values were obtained:
cyclooxygenase = settings: known inhibitors; cited from earlier work
lipoxygenase [1] = settings: known inhibitors; cited from earlier work
lipoxygenase [2] = test: Inhibition of leukotriene formation (LTC4, LTD4, LTE4 in pleural exudate, HPLC) in A23187-induced pleurisy, oral administration; type: in vivo, rats (Wistar-strain, male); settings: rat pleural exudate, 3 mg/kg p.o., 60 minutes before intrapleural A23187
Description: (1) Preparation of A23187 -induced pleurisy
Under ether anaesthesia, 0.2 ml of 100,μM […] (prepared by adding injectable distilled water in a 2mM A23187 ethanol solution) was administered intrapleurally to rats (Wistar-strain, male, 11 weeks old). Twenty minutes after the administration, the rats were exsanguinated and the pleural exudate was harvested. The test compound was suspended or dissolved in a 0.5% carboxymethyl cellulose solution containing 2% Tween, and orally administered to the animals 60 minutes before the intrapleural administration of A23187.
(2) Measurement of the leukotrienes [LTC4, LTD4 and LTE4 ]
To the exudate obtained in (1) was added 4 times its volume of ice-cooled ethanol. They were well mixed, and then centrifuged. The supernatant was concentrated under reduced pressure, and 1.0 ml of 0.01M acetate buffer (pH 5.9) was added to the residue. The solution was added to SEP-PAK® (C18) and leukotrienes were partially purified. Fractions eluted with 5 ml of 60% ethanol/0.01M acetate buffer (pH 5.9) were collected, and the solvent was evaporated under reduced pressure.
The residue was dissolved in 1 ml of methanol, and the solution was filtered on a filter having a pore size of 0.45 microns, and evaporated under reduced pressure. The residue was dissolved in the mobile phase (acetonitrile/water/acetic acid/triethylamine, 35/63.5/1.5/2.2) used in high performance liquid chromatography (HPLC) and subjected to analysis by HPLC. A calibration curve was obtained by a fixed amount of PGB2 as an internal standard substance and standard LTC4, LTD4 and LTE4 were added to a buffer, followed by the same extraction, partial purification and HPLC analysis as above. The amounts of the leukotrienes in the sample were calculated from the calibration curve.
The activity of 2-(4-hydroxy-3,5-dimethylphenyl)-5-methoxy-3-methylindole (compound A) which is disclosed in Example 1 of U.S. Pat. No. 4,695,381 and was selected as an active control is also shown below.

Row | SMILES | cyclooxygenase inhibition (lack of specificity) (cyclooxygenase) | lipoxygenase inhibition (lipoxygenase [1]) | percent inhibition of LTC4 + LTD4 + LTE4 (lipoxygenase [2]) [%] | LTC4 + LTD4 + LTE4 (lipoxygenase [2]; mean ± S.E.M., vehicle 414.82 ± 49.81 ng) [ng]
1 | CCCCCC#CCC#CCC#CCC#CCCCC(=O)O [5,8,11,14-eicosatetraynoic acid] | lack specificity and inhibit not only lipoxygenase but also cyclooxygenase | inhibit not only lipoxygenase |  | 
2 | NC1=NN(c2cccc(C(F)(F)F)c2)CC1 [BW755C, 3-amino-1-(3-trifluoromethylphenyl)-2-pyrazoline] | lack specificity and inhibit not only lipoxygenase but also cyclooxygenase | inhibit not only lipoxygenase |  | 
3 | COc1ccc2[nH]c(-c3cc(C)c(O)c(C)c3)c(C)c2c1 [Compound A, 2-(4-hydroxy-3,5-dimethylphenyl)-5-methoxy-3-methylindole] |  |  | 32.0 | 
4 | COc1ccc2[nH]c(-c3cc(C)c(OC(=O)CCC(=O)O)c(C)c3)c(C)c2c1 [Example 1] |  |  | 53.4 | 193.30 ± 28.37
